Assay results as given in publication PMC11054132, “Neuroprotective Effects of Chemical Constituents of Leaves of Euonymus hamiltonianus Wall” (Plants, 2024).
Entries after “also recorded” stand apart in the source; their conditions may differ. Read-outs that look alike come from different tables or passages of the source.

Legend:
[1] = test system: Aβ42 production in APPsw-transfected HeLa cells; assay: Aβ42 production (ELISA kit) in APPsw-transfected HeLa cells; assay type: cell-based; settings: for IC50: APPsw-transfected HeLa cells, 8 h, means ± SDs (n = 3)
Method: APPsw-transfected HeLa cells were cultured with the isolated compounds or DMSO in Dulbecco’s modified Eagle medium (DMEM, Welgene, Gyeongsan-si, Republic of Korea) for 8 h, and then the cell culture supernatants were collected for the following analyses. For the detection of Aβ secretion, kits for Aβ42 (KHB3442) and Aβ40 (KHB3482) were purchased from the Invitrogen Company and used according to the supplier’s instructions.
(§1) For the Aβ-Hela-APPsw model, Hela cells were stably transfected with an APP carrying the Swedish mutation (APPsw) using BioT (Bioland Scientific LLC, Paramount, CA, USA) according to the manufacturer’s instructions, which was provided by Prof. Tae-Wan Kim (Department of Pathology, Columbia University of Medical Center, New York, NY 10032, USA). APPsw-transfected HeLa cells were grown in DMEM supplemented with 10% fetal bovine serum (FBS; Thermo Fisher Scientific, Lafayette, CA, USA), 1% penicillin/streptomycin (Thermo Fisher Scientific, Lafayette, CA, USA), 260 μg/mL Zeocin, and 400 μg/mL G418. The cells were maintained at 37 °C under a humidified atmosphere of 5% CO2. The stock sample solution was dissolved in DMSO and kept at −20 °C and diluted to the final concentration in fresh medium before each experiment. For the cell viability assay, Hela cells were cultured in 96-well plates for 24 h and then various concentrations of comp 27 (0–10 μM) were treated for 12 h. The EZ-Cytox kit (DAEILLAB, Cheongwon, Republic of Korea) was applied to detect the cell viability, following the manufacturer’s instructions, and measurements were taken by a microplate reader (BIO-TEK® Dower-Wave; BioTek, Winooski, VT, USA) under absorbance at 450 nm. The results were presented as the percentage of MTT reduction, compared with the control group as 100%. For the LPS-induced microglia model, the BV-2 mouse microglia cell line was provided by Prof. Lee Sung Jung’s research team in the College of Medicine, Seoul National University, and was cultured in DMEM-F12 with 5% FBS and 1% penicillin/streptomycin at 37 °C under a humidified atmosphere containing 5% CO2. And the cell viability assay was performed using the Aβ-Hela-APPsw model.

[2] = test system: NO production in LPS-activated BV-2 microglial cells; assay: NO production (Griess reaction) in LPS-stimulated BV-2 microglial cells; assay type: cell-based, mouse; settings: for IC50: Mus musculus, BV-2, BV-2 microglial cells, pretreated 1 h, 100 ng/mL LPS (footnote 24 h; text 12 h), means ± SDs (n = 3)
Method: The anti-inflammatory effects of the fourteen compounds (1–14) isolated from E. hamiltonianus were evaluated in activated BV-2 microglial cells by the production of NO and proinflammatory cytokines. […] […] The compounds were continuously assessed to determine whether they suppressed the expression of iNOS and COX-2 in LPS-stimulated BV-2 microglial cells. The cells were stimulated with LPS in the presence of these compounds at various concentrations, and the expression levels of iNOS and COX-2 were determined by Western blotting. […] Thus, compound 3 may be considered a potential anti-inflammatory agent.
as §1, with “For the cell viability assay, Hela cells were cultured in 96-well plates for 24 h and then various concentrations of comp 27 (0–10 μM) were treated for 12 h.” left out
[…] The media were collected and centrifuged at 13,000 rpm for the removal of dead cells. The supernatants were collected and mixed with an equal volume (50 μL) of Griess reagents (1% sulfanilamide and N-(1-naphthyl) ethylenediamine dihydrochloride in 2.5% H3PO4) for 5 min at room temperature, and the Nitric Oxide concentration was measured at 540 nm using a microplate reader and compared with the sodium nitrite standard curve.

[3] = Cytotoxicity (MTT assay) in BV-2 microglial cells; assay type: cell-based; settings: mouse
[4] = Storage stability of isolated compound by LC-MS; assay type: physicochemical; settings: stored 27 days (compound 2) or a significant length of time (compound 1), dried powder and DMSO solution
Method: In this study, qualitative profile analysis was performed on the 30% EtOH crude extract of the leaves of E. hamiltonianus using HPLC. The isolated phytochemicals, 1–14, were used as standards and compared to the crude extract profile represented by a high-performance liquid chromatogram (Figure 3). […] With comparative UV area normalization, compound 2 was confirmed as a pure compound initially when isolated (Figure S3.8). […] For reconfirmation, LC-MS analyses of both the dried powdered form of the compound when isolated and the compound in DMSO solution were performed (Figure S3.9), both sets of results showing signs of degradation. Compound 2 was degraded into three separate peaks, and the original compound 2 indicated by m/z 759.2 was verified by LC-MS analysis, and the peaks of 2a and 2b were indicated by m/z 465.1 and 627, respectively. […] Due to the close resemblance of compound 2 to compound 1, it was investigated in the same manner after a significant length of time.

iNOS = assay: Western blot of LPS-induced iNOS expression in BV-2 microglial cells; assay type: cell-based, mouse; settings: LPS-stimulated BV-2 microglial cells, various concentrations (1.0, 2.0, 4.0 µM)
Method: The anti-inflammatory effects of the fourteen compounds (1–14) isolated from E. hamiltonianus were evaluated in activated BV-2 microglial cells by the production of NO and proinflammatory cytokines. BV-2 microglial cells were stimulated with 0.1 µg/mL LPS for 12 h in the presence of the compounds at various concentrations, and the levels of NO in the culture supernatants were measured using Griess reactions. […] The compounds were continuously assessed to determine whether they suppressed the expression of iNOS and COX-2 in LPS-stimulated BV-2 microglial cells. The cells were stimulated with LPS in the presence of these compounds at various concentrations, and the expression levels of iNOS and COX-2 were determined by Western blotting. […] Thus, compound 3 may be considered a potential anti-inflammatory agent.
The total protein samples (10 μg) were loaded in sodium dodecyl sulfate polyacrylamide gel electrophoresis (SDS–PAGE) gels with 10% acrylamide/bis and transferred to polyvinylidene difluoride membranes (Millipore, Burlington, MA, USA). Then, the membranes were blocked with 5% silky milk dissolved in TBST (Tris Buffered saline Tween) for 1 h under room temperature and incubated overnight at 4 °C with specific primary antibodies (1:1000). After being washed with TBST, the membranes were incubated with secondary HRP-conjugated IgG (1:2000) at room temperature for 1 h and visualized using enhanced chemiluminescence (ECL) reagents (Thermo Fisher Scientific, Lafayette, CA, USA). Densitometry analysis of the bands was performed with the fusion solo system (Vilber, Paris, France). The band densities were determined as the intensities of protein by TotalLab TL120 software v2009 (TotalLab, Newcastle, UK).

[5] = BV-2 microglial cells, MTT assay, read-out: IC50 Value (µM) Cytotoxicity

| Structure (SMILES) | IC50 ([1]; Homo sapiens, HeLa) [µM] | IC50 [2] [µM] | IC50 at 12 h [3, 5] [µM] | other results |
| --- | --- | --- | --- | --- |
| COc1cc([C@H]2OC[C@H]3[C@@H]2CO[C@@H]3c2cc(OC)c(O[C@@H]3O[C@H](CO)[C@@H](O)[C@H](O)[C@H]3O)c(OC)c2)cc(OC)c1O[C@@H]1O[C@H](CO)[C@@H](O)[C@H](O)[C@H]1O [Compound 9, liriodendrin] |  |  |  | IC50 at 12 h [3]: > 100 µM |
| COc1cc2c(OC)c3c(c(-c4ccc5c(c4)OCO5)c2cc1OC)C(=O)OC3 [Justicidine A, reference compound] |  |  |  | IC50 [1]: 1 ± 0.043 µM |
| O=C(O)/C=C/c1ccc(O)c(O[C@@H]2O[C@H](CO)[C@@H](O)[C@H](O)[C@H]2O)c1 [Compound 12, caffeic acid trans-3-O-β-D-glucopyranoside] | > 100 | > 100 | > 100 |  |
| O=c1occc2c(O)cc(O)cc12 [Compound 11, 5,7-dihydroxyisocoumarin] |  | > 100 | > 100 |  |
| CCCCOC(=O)C(CC(=O)O)OC(=O)C=Cc1ccc(O)cc1 (stereo not shown) [Compound 10, p-coumaroylmalic acid 1-butyl ester] |  | > 100 | > 100 |  |
| O=c1c(O[C@@H]2O[C@H](CO)[C@@H](O)[C@H](O)[C@H]2O[C@@H]2OC[C@@H](O)[C@H](O)[C@H]2O)c(-c2ccc(O)c(O)c2)oc2cc(O)cc(O)c12 [Compound 6, quercetin-3-O-sambubioside] | > 100 | > 100 | > 100 |  |

More lines, main results first:

| IC50 ([1]; Homo sapiens, HeLa) [µM] | IC50 [2] [µM] | Structure (SMILES) | IC50 at 12 h [3, 5] [µM] | other results |
| --- | --- | --- | --- | --- |
| 53.1 to 65.4 | > 100 | COC(=O)/C=C/c1ccc(O)c(O[C@@H]2O[C@H](CO)[C@@H](O)[C@H](O)[C@H]2O)c1 [Compound 13, methyl trans-3-O-(β-D-glucopyranosyl) caffeate] | > 100 | IC50 [1]: 65.4 ± 6.71 µM; Inhibitory effect on Aβ production (in words) ([1]; Hela-swAPP cells): reduced Aβ levels |
|  | > 100 | O=c1c(O[C@@H]2O[C@H](CO)[C@@H](O)[C@H](O)[C@H]2O)c(-c2ccc(O)c(O[C@@H]3O[C@H](CO)[C@@H](O)[C@H](O)[C@H]3O)c2)oc2cc(O)cc(O)c12 [Compound 8, quercetin-3,3′-di-O-β-D-glucopyranoside] | > 100 |  |
|  | > 100 | COc1cc(-c2oc3cc(O[C@@H]4O[C@H](CO)[C@@H](O)[C@H](O)[C@H]4O)cc(O)c3c(=O)c2O[C@@H]2O[C@H](CO)[C@@H](O)[C@H](O)[C@H]2O)ccc1O [Compound 5, isorhamnetin-3,7-di-O-β-D-glucopyranoside] | > 100 |  |
|  | > 100 | COc1cc(-c2oc3cc(O[C@@H]4O[C@H](CO)[C@@H](O)[C@H](O)[C@H]4O)cc(O)c3c(=O)c2O[C@@H]2O[C@H](CO)[C@@H](O)[C@H](O)[C@H]2O[C@@H]2OC[C@@H](O)[C@H](O)[C@H]2O)ccc1O [Compound 1, isorhamnet-in-3-O-(2″-O-(β-D-xylopyranosyl)-β-D-glucopyranoside)-7-O-β-D-glucopyranoside] | > 100 | Degradation on storage (in words) [4]: did not show any sign of degradation |
| > 100 | > 100 | O=c1c(O[C@@H]2O[C@H](CO)[C@@H](O)[C@H](O)[C@H]2O[C@@H]2OC[C@@H](O)[C@H](O)[C@H]2O)c(-c2ccc(O)c(O)c2)oc2cc(O[C@@H]3O[C@H](CO)[C@@H](O)[C@H](O)[C@H]3O)cc(O)c12 [Compound 2, quercetin-3-O-(2″-O-(β-D-xylopyranosyl)-β-D-glucopyranoside)-7-O-β-D-glucopyranoside] | > 100 | Degradation on storage (in words) [4]: showed signs of degradation |
|  | > 100 | O=c1c(O[C@@H]2O[C@H](CO)[C@@H](O)[C@H](O)[C@H]2O)c(-c2ccc(O)c(O)c2)oc2cc(O)cc(O)c12 [Compound 7, isoquercetin] | > 100 |  |
|  | 1.24 ± 0.104 | C[C@@H]1C[C@H]2[C@@H]3CCC4=CC(=O)C=C[C@]4(C)[C@@]3(F)[C@@H](O)C[C@]2(C)[C@@]1(O)C(=O)CO [Dexamethasone, reference compound] | > 100 |  |
| 53.1 to 65.4 | 17.4 ± 2.77 | OC[C@H]1O[C@@H](OC[C@H]2O[C@@H](OCc3ccccc3)[C@H](O)[C@@H](O)[C@@H]2O)[C@H](O)[C@@H](O)[C@@H]1O [Compound 14, benzyl gentiobioside] | > 100 | Inhibitory effect on NO production (in words) ([2]; LPS-stimulated BV-2 microglial cells): effectively downregulated; also recorded: good inhibitory effects; LPS-induced iNOS protein expression (in words) (iNOS): suppressed; also recorded: effectively downregulated |
